Experimental data reported in patent US20230263822A1, “MODULATION OF FACTOR 11 EXPRESSION” (Ionis Pharmaceuticals, Inc., priority 2008, published 2023).
Strand notation (5' to 3'): a small letter for the sugar, then the base; units joined by * are phosphorothioate-linked, units joined directly phosphodiester-linked; [ ] holds rarer units or linkages, { } end groups; capitals alone tell only the bases. e = 2'-O-(2-methoxyethyl) (MOE); [5mC] = 5-methylcytosine; d = 2'-deoxy (DNA)

What was measured:
[1] = Body and organ weights of cynomolgus monkeys (Example 46); type: in vivo; design: Liver weight / Spleen weight / Kidney weight: unit not given here; conditions: for Kidney weight / Liver weight / Spleen weight: day 55, after euthanasia
Method: (§1) Groups, each consisting of two male and two female monkeys, were injected subcutaneously with 25 mg/kg of ISIS 416850, ISIS 449709, ISIS 445522, ISIS 449710, ISIS 449707, ISIS 449711, ISIS 449708, 416858, and ISIS 445531. Antisense oligonucleotide was administered to the monkeys at 25 mg/kg three times per week for week 1 and 25 mg/kg twice per week for weeks 2 to 8. A control group, consisting of two male and two female monkeys was injected subcutaneously with PBS according to the same dosing regimen. Body weights were taken 14 days and 7 days before the start of treatment and were then measured weekly throughout the treatment period. Blood samples were collected 14 days and 5 days before the start of treatment and subsequently several times during the dosing regimen for PT and aPTT measurements, and measurement of various hematologic factors. On day 55, the monkeys were euthanized by exsanguination while under deep anesthesia, and organs harvested for further analysis.
Organ weights were taken after the animals were euthanized on day 55, and livers, kidneys and spleens were harvested.

blood coagulation = test: PT and aPTT assay in cynomolgus monkeys (Example 46); type: in vivo; conditions: for PT ratio (INR) / aPTT ratio relative to PBS group: platelet poor plasma, relative to PBS group; for aPTT: cynomolgus monkeys, 25 mg/kg
Method: as §1
PT and aPTT were measured using platelet poor plasma (PPP) from […] treated with ISIS oligonucleotides. PT and aPTT values are provided in Tables 148 and 149 and are reported as International Normalized Ratio (INR) values. INR values for PT and aPTT were determined by dividing the PT or aPTT value for each experimental group by the PT or aPTT for the PBS treated group. This ratio was then raised to the power of the International Sensitivity Index (ISI) of the tissue factor used. […] Therefore, antisense reduction of Factor 11 with these ISIS oligonucleotides is useful for inhibiting the formation of a thrombus or clot in response to an abnormal vessel wall, but not in response to tissue injury.

Substance	body weight ([1]; day 1)	body weight ([1]; day 8)	body weight ([1]; day 15)	body weight ([1]; day 22)	body weight ([1]; day 29)	body weight ([1]; day 36)	body weight ([1]; day 43)	body weight ([1]; day 50)	Kidney weight [1]	Liver weight [1]	Spleen weight [1]	body weight ([1]; day −7)	body weight ([1]; day −14)	PT ratio (INR) (blood coagulation; Day 10)	aPTT ratio relative to PBS group (blood coagulation; Day 10)	PT ratio (INR) (blood coagulation; Day 17)	aPTT ratio relative to PBS group (blood coagulation; Day 17)	PT ratio (INR) (blood coagulation; Day 24)	aPTT ratio relative to PBS group (blood coagulation; Day 24)	PT ratio (INR) (blood coagulation; Day 31)	other results
ISIS 416850: MOE gapmer, nucleobases 1275 to 1318 of SEQ ID NO: 1 (Table 8) (antisense TGCACAGTTTCTGGCAGGCC; MOE gapmer, wing and gap sizes not given here)	2083 g	2072 g	2147 g	2139 g	2159 g	2136 g	2186 g	2143 g	0.51	2.5	0.17	2074 g	2061 g	0.99	0.98	1.00	1.01	0.97	1.05	1.00	aPTT ratio relative to PBS group (blood coagulation; Day 31): 1.22; PT ratio (INR) (blood coagulation; Day 38): 1.01; aPTT ratio relative to PBS group (blood coagulation; Day 38): 1.25; PT ratio (INR) (blood coagulation; Day 45): 1.00; aPTT ratio relative to PBS group (blood coagulation; Day 45): 1.34; PT ratio (INR) (blood coagulation; Day 52): 1.02; aPTT ratio relative to PBS group (blood coagulation; Day 52): 1.32; PT ratio (INR) (blood coagulation; Day 55): 1.07; aPTT ratio relative to PBS group (blood coagulation; Day 55): 1.45; PT ratio (INR) (blood coagulation; Day −5): 1.00; aPTT ratio relative to PBS group (blood coagulation; Day −5): 0.90; PT ratio (INR) (blood coagulation; Day −14): 1.02; aPTT ratio relative to PBS group (blood coagulation; Day −14): 0.99; aPTT (blood coagulation): significantly prolonged
ISIS 416858: MOE gapmer, nucleobases 1275 to 1318 of SEQ ID NO: 1 (Table 8) (antisense ACGGCATTGGTGCACAGTTT; MOE gapmer, wing and gap sizes not given here)	2115 g	2149 g	2162 g	2188 g	2196 g	2210 g	2238 g	2225 g	0.47	2.6	0.24	2092 g	2073 g	0.96	1.07	0.98	1.13	0.95	1.21	1.00	aPTT ratio relative to PBS group (blood coagulation; Day 31): 1.32; PT ratio (INR) (blood coagulation; Day 38): 0.97; aPTT ratio relative to PBS group (blood coagulation; Day 38): 1.41; PT ratio (INR) (blood coagulation; Day 45): 1.00; aPTT ratio relative to PBS group (blood coagulation; Day 45): 1.49; PT ratio (INR) (blood coagulation; Day 52): 0.99; aPTT ratio relative to PBS group (blood coagulation; Day 52): 1.53; PT ratio (INR) (blood coagulation; Day 55): 1.01; aPTT ratio relative to PBS group (blood coagulation; Day 55): 1.61; PT ratio (INR) (blood coagulation; Day −5): 0.96; aPTT ratio relative to PBS group (blood coagulation; Day −5): 0.96; PT ratio (INR) (blood coagulation; Day −14): 1.01; aPTT ratio relative to PBS group (blood coagulation; Day −14): 1.03; aPTT (blood coagulation): significantly prolonged
ISIS 445522: 5-8-5 or 6-8-6 MOE microwalk gapmer (Table 44) (antisense eG*e[5mC]*eA*e[5mC]*eA*dG*dT*dT*dT*d[5mC]*dT*dG*dG*e[5mC]*eA*eG*eG*e[5mC])	2047 g	2094 g	2092 g	2114 g	2125 g	2121 g	2142 g	2127 g	0.55	2.6	0.23	2042 g	2050 g	0.95	1.06	0.96	1.10	0.94	1.14	0.96	aPTT ratio relative to PBS group (blood coagulation; Day 31): 1.25; PT ratio (INR) (blood coagulation; Day 38): 0.97; aPTT ratio relative to PBS group (blood coagulation; Day 38): 1.32; PT ratio (INR) (blood coagulation; Day 45): 0.96; aPTT ratio relative to PBS group (blood coagulation; Day 45): 1.39; PT ratio (INR) (blood coagulation; Day 52): 0.98; aPTT ratio relative to PBS group (blood coagulation; Day 52): 1.39; PT ratio (INR) (blood coagulation; Day 55): 1.01; aPTT ratio relative to PBS group (blood coagulation; Day 55): 1.42; PT ratio (INR) (blood coagulation; Day −5): 0.94; aPTT ratio relative to PBS group (blood coagulation; Day −5): 0.91; PT ratio (INR) (blood coagulation; Day −14): 1.00; aPTT ratio relative to PBS group (blood coagulation; Day −14): 0.96; aPTT (blood coagulation): significantly prolonged
ISIS 445531: 5-8-5 or 6-8-6 MOE microwalk gapmer (Table 44) (antisense eG*eG*e[5mC]*eA*eT*dT*dG*dG*dT*dG*d[5mC]*dA*d[5mC]*eA*eG*eT*eT*eT)	2125 g	2119 g	2109 g	2143 g	2148 g	2191 g	2233 g	2197 g	0.49	2.8	0.24	2092 g	2079 g	1.00	0.95	1.06	1.05	1.02	1.00	1.04	aPTT ratio relative to PBS group (blood coagulation; Day 31): 1.07; PT ratio (INR) (blood coagulation; Day 38): 1.03; aPTT ratio relative to PBS group (blood coagulation; Day 38): 1.06; PT ratio (INR) (blood coagulation; Day 45): 1.01; aPTT ratio relative to PBS group (blood coagulation; Day 45): 1.13; PT ratio (INR) (blood coagulation; Day 52): 1.04; aPTT ratio relative to PBS group (blood coagulation; Day 52): 1.15; PT ratio (INR) (blood coagulation; Day 55): 1.06; aPTT ratio relative to PBS group (blood coagulation; Day 55): 1.19; PT ratio (INR) (blood coagulation; Day −5): 1.00; aPTT ratio relative to PBS group (blood coagulation; Day −5): 0.89; PT ratio (INR) (blood coagulation; Day −14): 1.06; aPTT ratio relative to PBS group (blood coagulation; Day −14): 1.00
ISIS 449707: 3-8-3, 4-8-4, 2-10-2, 3-10-3 or 4-10-4 MOE microwalk gapmer (Table 46) (antisense e[5mC]*eA*e[5mC]*eA*dG*dT*dT*dT*d[5mC]*dT*dG*dG*e[5mC]*eA*eG*eG)	2107 g	2088 g	2120 g	2142 g	2155 g	2158 g	2197 g	2185 g	0.53	2.5	0.24	2083 g	2072 g	0.95	0.92	0.97	0.94	0.95	0.93	0.96	aPTT ratio relative to PBS group (blood coagulation; Day 31): 0.95; PT ratio (INR) (blood coagulation; Day 38): 1.00; aPTT ratio relative to PBS group (blood coagulation; Day 38): 0.99; PT ratio (INR) (blood coagulation; Day 45): 0.96; aPTT ratio relative to PBS group (blood coagulation; Day 45): 1.00; PT ratio (INR) (blood coagulation; Day 52): 0.96; aPTT ratio relative to PBS group (blood coagulation; Day 52): 0.99; PT ratio (INR) (blood coagulation; Day 55): 1.00; aPTT ratio relative to PBS group (blood coagulation; Day 55): 1.04; PT ratio (INR) (blood coagulation; Day −5): 0.94; aPTT ratio relative to PBS group (blood coagulation; Day −5): 0.87; PT ratio (INR) (blood coagulation; Day −14): 1.01; aPTT ratio relative to PBS group (blood coagulation; Day −14): 0.90
